# Test results taken from article PMC5207512, “Inhibition of Helicobacter pylori and Its Associated Urease by Palmatine: Investigation on the Potential Mechanism” (PLoS ONE, 2017).
# “And” between values parts separate entries of the source, which are not always exact repeats. Equal values may be shown once. Read-outs that look alike come from different tables or passages of the source.
# How the values were obtained:
# jack bean urease (JBU) [1] = target: T1, jack bean urease (JBU) (Canavalia ensiformis, UniProt P07374); test: biochemical; format: biochemical; settings: thiols 1.25 mM, Pal 0.5 mM, 20+20 min; for Residual urease activity (percent of control): Fig 5B JBU; for activity at 1250 µM: read-out: Residual urease activity (percent of control), Fig 5B JBU
# T1 construct: Urease from jack bean (Canavalia ensiformis, JBU); purchased Sigma-Aldrich (St Louis, MO, USA) type III (catalogue number not given)
# Description: (§1) The reaction mixture consisted of 0.25 mg/mL HPU or JBU, 0.5 mM Pal (for both HPU and JBU), and 1.25 mM thiols (DTT, GSH, or L-cys) in 20 mM HEPES buffer (pH 7.5). The components of the incubation mixture were mixed according to three procedures: (1) Urease was added to the mixture after a 20-min co-incubation of Pal with thiol. (2) Pal was added to the mixture after a 20-min co-incubation of urease with thiol. (3) Thiols were added to the mixture after a 20-min co-incubation of urease with Pal. The incubation mixture containing all components was incubated for further 20 min and the activity of urease was determined. The experiments were triply performed.
# H. pylori urease (HPU) [2] = target: T2, H. pylori urease (HPU) (Helicobacter pylori, UniProt P69996); test: biochemical; format: biochemical; settings: thiols 1.25 mM, Pal 0.5 mM, 20+20 min; for Residual urease activity (percent of control): Fig 5A HPU; for activity at 1250 µM: read-out: Residual urease activity (percent of control), Fig 5A HPU
# T2 construct: HPU was prepared as previously described; made in house
# Description: as §1
# jack bean urease (JBU) [3] = target: T1, jack bean urease (JBU); test: biochemical; settings: Pal 0.5 mM, thiols 1.25 mM, replicates; for Residual urease activity (percent of control): Fig 4B JBU; for activity at 1250 µM: read-out: Residual urease activity (percent of control), Fig 4B JBU
# Description: (§2) For the protection with thiols-containing compounds, the mixture consisting of 0.25 mg/mL urease (HPU or JBU), 0.5 mM Pal (for both HPU and JBU) and 1.25 mM thiols (DTT, GSH and L-cys) was incubated for 5, 10, 20, and 40 min at 37°C, respectively. The control sample instead of the protectors contained a proper volume of respective buffer.
# H. pylori urease (HPU) [4] = target: T2, H. pylori urease (HPU); test: biochemical; settings: Pal 0.5 mM, thiols 1.25 mM, replicates; for Residual urease activity (percent of control): Fig 4A HPU; for activity at 1250 µM: read-out: Residual urease activity (percent of control), Fig 4A HPU
# Description: as §2
# jack bean urease (JBU) [5] = target: T1, jack bean urease (JBU); test: biochemical; format: biochemical; settings: for Urease activity: Fig 6B JBU
# Description: (§3) The reactivation of Pal-inactivated urease was investigated by DTT application. The preincubation mixture consisted of 0.25 mg/mL HPU or JBU and 0.5 mM Pal in 20 mM HEPES buffer (pH 7.5). Then the mixture was further incubated with 1.25 mM DTT after 20 min. The enzymatic activity of urease was determined before and after the addition of DTT. After a while, aliquots were withdrawn and the urease residual activity was determined. The experiments were repeated three times.
# H. pylori urease (HPU) [6] = target: T2, H. pylori urease (HPU); test: biochemical; format: biochemical; settings: for Urease activity: Fig 6A HPU
# Description: as §3
# jack bean urease (JBU) [7] = target: T1, jack bean urease (JBU); test: Urease inhibition test (modified Berthelot method); format: biochemical; settings: JBU 0.25 mg/mL; 20 min preincubation 37°C, pH 7.5; read-out: IC50
# Description: (§4) HPU was prepared as previously described. The standard urease assay mixture included 150 mM urea in 20 mM HEPES buffer (pH 7.5). After addition of small aliquots of enzyme-containing solution of urease, the assay ran for 20 min. The enzymatic activity was evaluated spectrophotometrically by detecting the ammonia concentration at 595 nm according to the modified Berthelot (phenol-hypochlorite) method. Urease activity was estimated with JBU as a standard, the specific activity of HPU was determined to be 17.0 U/mg. One unit of urease activity was defined as 1 μmol of ammonia released per min at 25°C. The amount of protein was determined by commercial Bradford Protein Assay Kit with BSA as a standard. The amount of ammonia released was decided from a standard curve. The activity of uninhibited urease was defined as the control activity of 100%.
# (§5) Reaction mixtures comprising 0.25 mg/mL HPU or JBU and different concentrations of Pal or AHA at the volume ratio of 1:1, were incubated at 37°C in 20 mM HEPES buffer (pH 7.5) in the absence of urea. The reactions were initiated by mixing the urease and the inhibitor. The preincubation mixture was withdrawn at 20 min and immediately transferred into the standard assay mixtures for urease residual activity determination. Inhibition rate (%) was calculated following the formula: I % = (1-activity with inhibitors/activity without inhibitors) × 100%. The IC50 was expressed as the concentration of inhibitor that decreased urease activity by 50% and calculated by plotting the percent of inhibition. The experiments were triply performed.
# H. pylori urease (HPU) [8] = target: T2, H. pylori urease (HPU); test: Urease inhibition test (modified Berthelot method); format: biochemical; settings: HPU 0.25 mg/mL; 20 min preincubation 37°C, pH 7.5; read-out: IC50
# Description: as §4, §5
# [9] = 1.25 mM DTT, control of reactivation assay
# [10] = incubation time 5 min, Pal 0.5 mM, DTT 1.25 mM
# [11] = incubation time 10 min, Pal 0.5 mM, DTT 1.25 mM
# [12] = incubation time 15 min, Pal 0.5 mM, DTT 1.25 mM
# [13] = incubation time 20 min, Pal 0.5 mM, DTT 1.25 mM
# [14] = incubation time 120 min, DTT added post 20 min
# T2 sequence (P14916 whole entry): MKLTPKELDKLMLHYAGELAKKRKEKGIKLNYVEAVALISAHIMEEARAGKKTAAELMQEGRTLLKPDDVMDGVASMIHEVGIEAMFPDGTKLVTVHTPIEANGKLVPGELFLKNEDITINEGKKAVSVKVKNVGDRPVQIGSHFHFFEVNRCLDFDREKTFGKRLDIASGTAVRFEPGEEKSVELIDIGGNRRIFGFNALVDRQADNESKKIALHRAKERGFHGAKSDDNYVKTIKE
# T2 sequence (P69996 whole entry): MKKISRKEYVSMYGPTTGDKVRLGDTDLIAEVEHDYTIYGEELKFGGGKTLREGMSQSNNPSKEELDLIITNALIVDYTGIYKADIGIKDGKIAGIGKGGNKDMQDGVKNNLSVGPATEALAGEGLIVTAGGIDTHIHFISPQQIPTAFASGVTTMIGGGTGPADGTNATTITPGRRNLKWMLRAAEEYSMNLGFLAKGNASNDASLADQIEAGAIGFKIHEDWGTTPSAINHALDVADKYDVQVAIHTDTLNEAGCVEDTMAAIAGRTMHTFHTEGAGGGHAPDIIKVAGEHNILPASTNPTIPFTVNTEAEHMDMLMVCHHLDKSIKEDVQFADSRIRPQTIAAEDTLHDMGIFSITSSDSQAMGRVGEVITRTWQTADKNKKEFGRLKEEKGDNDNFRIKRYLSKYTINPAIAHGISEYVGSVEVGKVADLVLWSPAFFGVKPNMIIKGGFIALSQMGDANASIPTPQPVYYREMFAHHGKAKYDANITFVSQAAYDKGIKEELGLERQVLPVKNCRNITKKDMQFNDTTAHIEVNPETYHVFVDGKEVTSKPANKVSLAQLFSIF
# T1 sequence (P07374 whole entry, looked up): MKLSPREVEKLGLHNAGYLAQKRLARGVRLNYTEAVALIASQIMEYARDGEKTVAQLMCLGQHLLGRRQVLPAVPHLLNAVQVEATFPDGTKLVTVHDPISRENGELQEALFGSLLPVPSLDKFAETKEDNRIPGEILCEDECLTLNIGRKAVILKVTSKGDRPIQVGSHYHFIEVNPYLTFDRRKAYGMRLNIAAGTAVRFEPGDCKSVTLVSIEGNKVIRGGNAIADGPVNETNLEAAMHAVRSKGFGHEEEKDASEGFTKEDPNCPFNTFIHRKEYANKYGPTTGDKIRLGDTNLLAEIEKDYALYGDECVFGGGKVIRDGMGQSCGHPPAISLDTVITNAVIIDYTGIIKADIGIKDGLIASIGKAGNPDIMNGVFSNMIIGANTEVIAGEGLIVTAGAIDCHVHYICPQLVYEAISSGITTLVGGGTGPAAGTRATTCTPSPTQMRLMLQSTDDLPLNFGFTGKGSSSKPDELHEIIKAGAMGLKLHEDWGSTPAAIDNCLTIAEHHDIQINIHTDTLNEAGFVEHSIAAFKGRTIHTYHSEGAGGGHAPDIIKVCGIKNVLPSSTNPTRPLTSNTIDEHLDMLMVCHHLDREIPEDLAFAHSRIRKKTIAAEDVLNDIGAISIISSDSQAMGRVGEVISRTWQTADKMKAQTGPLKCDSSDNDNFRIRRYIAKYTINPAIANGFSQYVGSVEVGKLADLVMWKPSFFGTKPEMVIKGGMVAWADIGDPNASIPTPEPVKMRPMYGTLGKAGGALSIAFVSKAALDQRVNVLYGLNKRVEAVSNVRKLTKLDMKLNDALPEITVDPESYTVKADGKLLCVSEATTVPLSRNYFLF
compound,measurement,setting,value
"O[C@@H](CS)[C@@H](O)CS (racemic) [DTT, dithiothreithol]",Residual urease activity (percent of control),jack bean urease (JBU) [1]; order (Protector+Pal)+urease,164.505% and 163.42% and 167.948%
same,Residual urease activity (percent of control),jack bean urease (JBU) [1]; order (urease+Pal)+Protector,156.562% and 141.035% and 115.717%
same,Residual urease activity (percent of control),jack bean urease (JBU) [1]; order (urease+Protector)+Pal,175.198% and 170.348% and 183.958%
same,Residual urease activity (percent of control),H. pylori urease (HPU) [2]; order (Protector+Pal)+urease,93.1647% and 102.135% and 96.7756%
same,Residual urease activity (percent of control),H. pylori urease (HPU) [2]; order (urease+Pal)+Protector,108.215% and 111.632% and 112.117%
same,Residual urease activity (percent of control),H. pylori urease (HPU) [2]; order (urease+Protector)+Pal,93.9563% and 102.92% and 98.1268%
same,Residual urease activity (percent of control),jack bean urease (JBU) [3]; 5 min incubation,93.6533% and 90.8565% and 95.5784%
same,Residual urease activity (percent of control),jack bean urease (JBU) [3]; 10 min incubation,106.756% and 109.689% and 104.897%
same,Residual urease activity (percent of control),jack bean urease (JBU) [3]; 20 min incubation,115.579% and 114.01% and 114.79%
same,Residual urease activity (percent of control),jack bean urease (JBU) [3]; 40 min incubation,142.945% and 126.676% and 135.643%
same,Residual urease activity (percent of control),H. pylori urease (HPU) [4]; 5 min incubation,81.4793% and 82.3893% and 84.6876%
same,Residual urease activity (percent of control),H. pylori urease (HPU) [4]; 10 min incubation,90.4823% and 88.7843% and 92.6863%
same,Residual urease activity (percent of control),H. pylori urease (HPU) [4]; 20 min incubation,93.6879% and 92.2701% and 94.7893%
same,Residual urease activity (percent of control),H. pylori urease (HPU) [4]; 40 min incubation,98.9725% and 95.7934% and 96.4654%
same,JBU activity with DTT without Pal,jack bean urease (JBU) [5]; [9],ca. 100%
same,Urease activity,jack bean urease (JBU) [5]; [10],121.742% and 114.981% and 108.343%
same,Urease activity,jack bean urease (JBU) [5]; [11],110.236% and 112.928% and 115.246%
same,Urease activity,jack bean urease (JBU) [5]; [12],113.236% and 116.183% and 119.514%
same,Urease activity,jack bean urease (JBU) [5]; [13],121.141% and 121.265% and 120.209%
same,Urease activity,jack bean urease (JBU) [5]; incubation time 25 min,120.019% and 120.291% and 121.459%
same,Urease activity,jack bean urease (JBU) [5]; incubation time 40 min,107.983% and 105.801% and 103.225%
same,Urease activity,jack bean urease (JBU) [5]; incubation time 60 min,111.088% and 107.798% and 104.326%
same,Urease activity,jack bean urease (JBU) [5]; incubation time 90 min,107.125% and 104.437% and 101.122%
same,Urease activity,jack bean urease (JBU) [5]; [14],112.893% and 110.524% and 108.243%
same,HPU activity with DTT without Pal,H. pylori urease (HPU) [6]; [9],ca. 100%
same,Urease activity,H. pylori urease (HPU) [6]; [10],95.491% and 88.7241% and 81.9292%
same,Urease activity,H. pylori urease (HPU) [6]; [11],99.0165% and 99.0712% and 98.1423%
same,Urease activity,H. pylori urease (HPU) [6]; [12],99.1346% and 97.2572% and 95.4326%
same,Urease activity,H. pylori urease (HPU) [6]; [13],97.9325% and 92.9515% and 87.6438%
same,Urease activity,"H. pylori urease (HPU) [6]; incubation time 40 min, DTT added post 20 min",92.9813% and 91.5048% and 89.9013%
same,Urease activity,H. pylori urease (HPU) [6]; incubation time 60 min,98.0126% and 92.5129% and 87.7924%
same,Urease activity,H. pylori urease (HPU) [6]; incubation time 90 min,91.4647% and 89.1159% and 85.7645%
same,Urease activity,H. pylori urease (HPU) [6]; [14],96.0166% and 88.9974% and 82.2782%
"CC(=O)NO [AHA, Acetohydroxamic acid]",IC50,jack bean urease (JBU) [7],20 µM
same,IC50,H. pylori urease (HPU) [8],70 ± 10 µM
"N[C@@H](CCC(=O)N[C@@H](CS)C(=O)NCC(=O)O)C(=O)O [GSH, glutathione]",activity at 1250 µM,jack bean urease (JBU) [1]; order (Protector+Pal)+urease,139%
same,activity at 1250 µM,jack bean urease (JBU) [1]; order (urease+Pal)+Protector,140%
same,activity at 1250 µM,H. pylori urease (HPU) [2]; order (Protector+Pal)+urease,90.2%
same,activity at 1250 µM,H. pylori urease (HPU) [2]; order (urease+Pal)+Protector,85.2%
same,activity at 1250 µM,H. pylori urease (HPU) [2]; order (urease+Protector)+Pal,86.2%
same,activity at 1250 µM,"jack bean urease (JBU) [3]; 5 min, 5 min incubation",129%
same,activity at 1250 µM,"jack bean urease (JBU) [3]; 10 min, 10 min incubation",130%
same,activity at 1250 µM,"jack bean urease (JBU) [3]; 20 min, 20 min incubation",129%
same,activity at 1250 µM,"jack bean urease (JBU) [3]; 40 min, 40 min incubation",146%
same,activity at 1250 µM,"H. pylori urease (HPU) [4]; 5 min, 5 min incubation",72.8%
same,activity at 1250 µM,"H. pylori urease (HPU) [4]; 10 min, 10 min incubation",90.4%
same,activity at 1250 µM,"H. pylori urease (HPU) [4]; 20 min, 20 min incubation",94.7%
same,activity at 1250 µM,"H. pylori urease (HPU) [4]; 40 min, 40 min incubation",97.5%
"N[C@@H](CS)C(=O)O [L-Cys, L-cysteine]",activity at 1250 µM,jack bean urease (JBU) [1]; order (Protector+Pal)+urease,147%
same,activity at 1250 µM,jack bean urease (JBU) [1]; order (urease+Protector)+Pal,146%
same,activity at 1250 µM,H. pylori urease (HPU) [2]; order (Protector+Pal)+urease,83.2%
same,activity at 1250 µM,H. pylori urease (HPU) [2]; order (urease+Pal)+Protector,82.4%
same,activity at 1250 µM,H. pylori urease (HPU) [2]; order (urease+Protector)+Pal,105%
same,activity at 1250 µM,"jack bean urease (JBU) [3]; 5 min, 5 min incubation",102%
same,activity at 1250 µM,"jack bean urease (JBU) [3]; 10 min, 10 min incubation",109%
same,activity at 1250 µM,"jack bean urease (JBU) [3]; 20 min, 20 min incubation",117%
same,activity at 1250 µM,"jack bean urease (JBU) [3]; 40 min, 40 min incubation",150%
same,activity at 1250 µM,"H. pylori urease (HPU) [4]; 5 min, 5 min incubation",118%
same,activity at 1250 µM,"H. pylori urease (HPU) [4]; 10 min, 10 min incubation",107%
same,activity at 1250 µM,"H. pylori urease (HPU) [4]; 20 min, 20 min incubation",109%
same,activity at 1250 µM,"H. pylori urease (HPU) [4]; 40 min, 40 min incubation",112%
